Patent US20130143929A1, “FUNGICIDAL IMIDAZOLES” (EI DU PONT DE NEMOURS AND COMPANY, priority 2010, published 2013)
Marks after values point to notes of the source that are not given here.

How the values were obtained:
Format in all cases: in vivo
[1] = tested on: Botrytis cinerea (the causal agent of tomato Botrytis); test: Test C: tomato Botrytis, preventive spray on tomato seedlings, visual disease rating; conditions: for Test C rating (100 = 100% disease control, 0 = no disease control relative to the controls): tomato Botrytis, preventive spray on tomato seedlings; for Test C rating (% disease control, tomato Botrytis): 100 = 100% disease control
Text: (§1) General protocol for preparing test suspensions for Tests A-D: the test compounds were first dissolved in acetone in an amount equal to 3% of the final volume and then suspended at the desired concentration (in ppm) in acetone and purified water (50/50 mix by volume) containing 250 ppm of the surfactant Trem® 014 (polyhydric alcohol esters). The resulting test suspensions were then used in Tests A-D. Spraying a 200 ppm test suspension to the point of run-off on the test plants was the equivalent of a rate of 800 g/ha.
(§2) The test suspension was sprayed to the point of run-off on tomato seedlings. The following day the seedlings were inoculated with a spore suspension of Botrytis cinerea (the causal agent of tomato Botrytis) and incubated in a saturated atmosphere at 20° C. for 48 h, and then moved to a growth chamber at 24° C. for 3 days, after which time visual disease ratings were made.
(§3) Results for Tests A-E are given in Table A. In the Table, a rating of 100 indicates 100% disease control and a rating of 0 indicates no disease control (relative to the controls). A dash (—) indicates no test results. An asterisk “*” next to the rating value indicates a 40 ppm test suspension was used.

[2] = tested on: Septoria tritici (the causal agent of wheat leaf blotch); test: Test B: wheat leaf blotch, preventive spray on wheat seedlings, visual disease rating; conditions: for Test B rating (100 = 100% disease control, 0 = no disease control relative to the controls): wheat leaf blotch, preventive spray on wheat seedlings; for Test B rating (% disease control, wheat leaf blotch): 100 = 100% disease control, 0 = no control
Text: as §1
as §2, with “wheat” for “tomato”, “Septoria tritici” for “Botrytis cinerea”, “wheat leaf blotch)” for “tomato Botrytis)”, “24°” for “20°”, “20°” for “24°”, “19” for “3”
as §3

[3] = tested on: Puccinia recondite f. sp. tritici (the causal agent of wheat leaf rust); test: Test A: wheat leaf rust, preventive spray on wheat seedlings, visual disease rating; conditions: for Test A rating (100 = 100% disease control, 0 = no disease control relative to the controls): wheat leaf rust, preventive spray on wheat seedlings; for Test A rating (% disease control, wheat leaf rust): 100 = 100% disease control
Text: as §1
as §2, with “wheat” for “tomato”, “Puccinia recondite f. sp. tritici” for “Botrytis cinerea”, “wheat leaf rust)” for “tomato Botrytis)”, “24” for “48”, “20°” for “24°”, “7” for “3”
as §3

[4] = tested on: Blumeria graminis f. sp. tritici (also known as Erysiphe graminis f. sp. tritici, the causal agent of wheat powdery mildew); test: Test D: wheat powdery mildew, preventive spray on wheat seedlings, visual disease rating; conditions: for Test D rating (100 = 100% disease control, 0 = no disease control relative to the controls): wheat powdery mildew, preventive spray on wheat seedlings; for Test D rating (% disease control, wheat powdery mildew): 100 = 100% disease control
Text: as §1
The test suspension was sprayed to the point of run-off on wheat seedlings. The following day the seedlings were inoculated with a spore dust of Blumeria graminis f. sp. tritici, (also known as Erysiphe graminis f. sp. tritici, the causal agent of wheat powdery mildew) and incubated in a growth chamber at 20° C. for 8 days, after which time visual disease ratings were made.
as §3

[5] = asterisk: 40 ppm test suspension
[6] = no asterisk (standard test suspension concentration, not 40 ppm)
[7] = asterisk: 40 ppm test suspension, 0 = no control
[8] = no asterisk: standard test suspension concentration, 0 = no control relative to controls

| Compound | Test C rating (100 = 100% disease control, 0 = no disease control relative to the controls) [1, 5] | Test B rating (100 = 100% disease control, 0 = no disease control relative to the controls) [2, 5] | Test A rating (100 = 100% disease control, 0 = no disease control relative to the controls) [3, 5] | Test D rating (100 = 100% disease control, 0 = no disease control relative to the controls) [4, 5] | Test C rating (100 = 100% disease control, 0 = no disease control relative to the controls) [1, 6] | Test B rating (100 = 100% disease control, 0 = no disease control relative to the controls) [2, 6] | Test A rating (100 = 100% disease control, 0 = no disease control relative to the controls) [3, 6] | Test D rating (100 = 100% disease control, 0 = no disease control relative to the controls) [4, 6] | other results |
| --- | --- | --- | --- | --- | --- | --- | --- | --- | --- |
| Cc1cccc(F)c1-n1c(C)nc(Cl)c1C(O)c1ccc(F)cc1Cl (centres unmarked) [compound 340] | 96* % | 100* % | 99* % | 89* % | – | – | – | – | – |
| Cc1nc(Cl)n(-c2ccc(F)cc2F)c1C(O)c1c(F)ccc(I)c1F (racemic) [compound 38] | – | – | – | – | 7% | 95% | 99% | 0% | – |
| Cc1cc(F)ccc1C(O)c1cnc(C)n1-c1c(F)cc(F)cc1Cl (centres unmarked) [compound 368] | – | – | – | – | 99% | 100% | 100% | 0% | – |
| COc1cc(F)ccc1C(O)c1c(Br)nc(C)n1-c1c(F)cccc1F (racemic) [compound 281] | 0* % | 0* % | 92* % | 0* % | – | – | – | – | – |
| COc1cc(F)c(C(O)c2cnc(C)n2-c2ccc(F)cc2F)c(F)c1 (racemic) [compound 257] | – | – | – | – | 0% | 24% | 92% | 0% | – |
| COc1cc(F)c(C(O)c2cnc(C)n2-c2ccc(F)cc2Cl)c(F)c1 (centres unmarked) [compound 363] | – | – | – | – | 9% | 74% | 98% | 0% | – |
| OC(c1ccc(F)cc1F)c1c(Br)nc(Br)n1-c1c(F)cc(F)cc1Cl (centres unmarked) [compound 107] | – | – | – | – | 100% | 100% | 100% | 94% | – |
| Cc1ncc(C(O)c2c(F)cc(F)cc2F)n1-c1ccc(F)cc1Cl (centres unmarked) [compound 170] | – | – | – | – | 63% | 73% | 99% | 0% | – |
| Cc1nc(Cl)c(C(O)c2c(F)cc(F)cc2F)n1-c1c(F)cccc1F (centres unmarked) [compound 100] | 97* % | 100* % | 100* % | 82* % | – | – | – | – | – |
| Cc1cc(F)ccc1C(O)c1c(Br)nc(C)n1-c1ccc(F)cc1Br (centres unmarked) [compound 173] | – | – | – | – | 16% | 100% | 99% | 48% | – |
| COc1ccc(C(O)c2c(Cl)nc(C)n2-c2c(F)cccc2Cl)c(F)c1 (racemic) [compound 277] | 100* % | 100* % | 100* % | 97* % | – | – | – | – | – |
| Cc1nc(Cl)c(C(O)c2ccc(F)cc2F)n1-c1ccc(F)cc1Cl (centres unmarked) [compound 58] | – | – | – | – | 100% | 100% | 100% | 72% | – |
| Cc1nc(Br)c(C(O)c2c(F)cc(F)cc2F)n1-c1ccc(F)cc1Cl (centres unmarked) [compound 141] | – | – | – | – | 99% | 100% | 100% | 96% | – |
| Cc1ncc(C(O)c2ccc(F)cc2Cl)n1-c1ccc(F)cc1Br (centres unmarked) [compound 189] | – | – | – | – | 99% | 100% | 100% | 27% | – |
| Cc1nc(Cl)c(C(O)c2ccc(F)cc2F)n1-c1c(F)cccc1Cl (centres unmarked) [compound 389] | – | – | – | – | – | – | – | – | Test C rating (% disease control, tomato Botrytis) [1, 7]: 100* %; Test B rating (% disease control, wheat leaf blotch) [2, 5]: 100* %; Test A rating (% disease control, wheat leaf rust) [3, 7]: 100* %; Test D rating (% disease control, wheat powdery mildew) [4, 8]: 98% |
| Cc1ncc(C(O)c2ccc(Cl)cc2)n1-c1ccc(F)cc1Br (centres unmarked) [compound 139] | – | – | – | – | 0% | 49% | 86% | 0% | – |
| Cc1nc(Br)n(-c2c(F)cc(Cl)cc2F)c1C(O)c1ccc(F)cc1F (racemic) [compound 299] | 100* % | 100* % | 100* % | 87* % | – | – | – | – | – |
| Cc1ncc(C(O)c2c(F)cc(Cl)cc2F)n1-c1ccc(F)cc1F (racemic) [compound 271] | 0* % | 17* % | 0* % | 0* % | – | – | – | – | – |
| COc1ccc(C(O)c2c(C)nc(Cl)n2-c2c(F)cccc2F)c(C)c1 (racemic) [compound 220] | 100* % | 100* % | 100* % | 97* % | – | – | – | – | – |
| COc1cc(F)c(-n2c(C)nc(Cl)c2C(O)c2ccc(F)cc2Cl)c(F)c1 (centres unmarked) [compound 403] | – | – | – | – | – | – | – | – | Test C rating (% disease control, tomato Botrytis) [1, 7]: 8* %; Test B rating (% disease control, wheat leaf blotch) [2, 5]: 100* %; Test A rating (% disease control, wheat leaf rust) [3, 7]: 99* %; Test D rating (% disease control, wheat powdery mildew) [4, 7]: 0* % |
| COc1cc(F)c(-n2c(C(O)c3ccc(F)cc3F)cnc2C)c(F)c1 (centres unmarked) [compound 404] | – | – | – | – | – | – | – | – | Test C rating (% disease control, tomato Botrytis) [1, 8]: 0%; Test A rating (% disease control, wheat leaf rust) [3, 8]: 98%; Test D rating (% disease control, wheat powdery mildew) [4, 8]: 0% |
| COc1cc(F)c(C(O)c2c(Br)ncn2-c2ccc(F)cc2Cl)c(F)c1 (racemic) [compound 232] | – | 59* % | 100* % | 0* % | – | – | – | – | – |
| Cc1nc(Cl)n(-c2ccc(F)cc2Cl)c1C(O)c1c(F)ccc(Br)c1Cl (racemic) [compound 34] | – | – | – | – | 99% | 98% | 99% | – | – |
